Test results from patent US10302632B2, “Macromolecular conjugates for visualization and separation of proteins and cells” (USTAV ORGANICKE CHEMIE A BIOCHEMIE AV CR, V.V.I., priority 2015, dated 2019).
Like-named read-outs stand apart in the source and are kept apart here. Square brackets hold non-standard residues; d marks the D form. Peptide text beside a SMILES is read from it. Sta = CC(C)C[C@H](N)[C@@H](O)CC(=O)O; AEEA = NCCOCCOCC(=O)O

Tests used:
[1] = molecular target: T1, recombinant extracellular GCPII (Avi-GCPII) (Homo sapiens, UniProt Q04609); test: Inhibition of GCPII hydrolytic activity (HPLC assay); format: biochemical
T1 construct: using a recombinant extracellular GCPII (Avi-GCPII; prepared according to [13]); Avi-tag; made in house
Method: Inhibitory potency of the inhibitors and polymeric conjugates on the hydrolytic activity of GCPII were tested by HPLC (described in [12]) using a recombinant extracellular GCPII (Avi-GCPII; prepared according to [13]). 210 pg of GCPII was mixed with a solution of 25 mM Bis-Tris propane, 150 mM NaCl, pH 7.4, 0.001% monododecyl(oktaethylenglycol)ether (Affymetrix, Octaethylene glycol monododecyl ether) and inhibitor solution to a total volume of 180 μl in a 96-well plate. Ten different inhibitor concentrations covering the whole inhibition curve were used. Reactions were first incubated 5 min at 37° C., then initiated by addition of 20 μl of pteroyl-bis(L-glutamate) to a final concentration of 400 nM and incubated at 37° C. for 20 min. […] Subsequently, 100 μl of the reaction mixture was analyzed in Agilent 1200 Infinity (Agilent Technologies, Inc.) on an RP-HPLC column Waters Acquity UPLC HSS T3 1.8 μm, 2.1×100 mm (Waters). HPLC analysis was performed isocratically in 2.7% acetonitrile and 97.3% 20 mM phosphate, pH 6.0. Substrate and product absorbance was measured at 281 nm. IC50 values were obtained from GraFit v.5.0.11 (Erithacus Software Ltd.).
Assuming competitive type of inhibition and using the values of KM and kcat, the Ki values for each inhibitor were determined from the Cheng-Prusoff equation [14].

HIV-1 protease = molecular target: T2, HIV-1 protease (Human immunodeficiency virus type 1 group M subtype B, UniProt P04585); test: Inhibition of HIV-1 protease activity (spectrophotometric, chromogenic peptide substrate); format: biochemical; conditions: pH 4.7, substrate 16 μM
T2 construct: HIV-1 protease is a homodimeric aspartic protease
Method: The inhibition analyses were performed by spectrophotometric assay using the chromogenic peptide substrate KARVNle*NphEANle-NH2 as previously described.
The 1 ml reaction mixture contained 100 mM sodium acetate, 300 mM NaCl, pH 4.7, 6.8 pmol of HIV-1 protease and inhibitor in concentrations ranging between 2 and 130 nM. Substrate was added to a final concentration of 16 μM. Afterwards, the hydrolysis of substrate was followed as a decrease in absorbance at 305 nm using a UNICAM UV500 UV-VIS spectrophotometer (Thermo, Cambridge, Mass.). The data were analyzed using the equation for competitive inhibition according to Williams and Morrison. The mechanism of inhibition was determined by analysis of Lineweaver-Burk plots.

CA-IX = CA-IX (Homo sapiens, UniProt Q16790); test: Affinity isolation (pull-down) of CA-IX from HT-29 cell lysate; format: binding; design: HT-29 cell line endogenously expressing CA-IX; endogenous in cells; host or cells: HT-29; conditions: conjugate on Streptavidin Sepharose, Western blot
Method: HT29 cells (cultured in 100 mm Petri dish) endogenously expressing CA-IX were lysed by sonication in a water bath (3 min/0° C.) in 450 μl of 50 mM Tris-HCl, 150 mM NaCl, pH 7.4, 1% Tween 20. Resulting cell lysate was further diluted in 20 mM Tris-HCl, 150 mM NaCl, 0.1% Tween 20, pH 7.4 (TBST) to a final protein concentration of 360 μg/ml. Meanwhile, Conjugate 3 and Conjugate 2 (negative control showing nonspecific binding) were pre-bound to 25 μl of Streptavidin Sepharose (200 nM solution in 200 μl of TBST, 1 hour, 6° C.), and after washing with 3×200 μl TBST, the resin was mixed with 200 μl of HT-29 cell lysate and incubated at 25° C. for 3 hours. The resin was then washed with 3×200 μl of TBST and subsequently, proteins were eluted with 25 μl of sample buffer for SDS-PAGE and with heating to 98° C. for 10 min.
To compare the effectiveness of CA-IX isolation with Conjugate 3, CA-IX was also isolated with M75 antibody. The experiment was performed analogously to experiment with polymeric conjugates: 1 μg of antibody was pre-bound to 20 μl of Protein G Sepharose the procedure followed as described above. […]
After isolation, samples were separated by SDS-PAGE electrophoresis and the gel was blotted to a nitrocellulose membrane (wet blot 100 V/1 hour). […] Chemiluminescence was recorded with ChemiDoc It™ 600 Imaging System (UVP).

[2] = read-out: Ki [nM] towards HIV-1 protease

T1 sequence (Q04609 44-750 limits assumed): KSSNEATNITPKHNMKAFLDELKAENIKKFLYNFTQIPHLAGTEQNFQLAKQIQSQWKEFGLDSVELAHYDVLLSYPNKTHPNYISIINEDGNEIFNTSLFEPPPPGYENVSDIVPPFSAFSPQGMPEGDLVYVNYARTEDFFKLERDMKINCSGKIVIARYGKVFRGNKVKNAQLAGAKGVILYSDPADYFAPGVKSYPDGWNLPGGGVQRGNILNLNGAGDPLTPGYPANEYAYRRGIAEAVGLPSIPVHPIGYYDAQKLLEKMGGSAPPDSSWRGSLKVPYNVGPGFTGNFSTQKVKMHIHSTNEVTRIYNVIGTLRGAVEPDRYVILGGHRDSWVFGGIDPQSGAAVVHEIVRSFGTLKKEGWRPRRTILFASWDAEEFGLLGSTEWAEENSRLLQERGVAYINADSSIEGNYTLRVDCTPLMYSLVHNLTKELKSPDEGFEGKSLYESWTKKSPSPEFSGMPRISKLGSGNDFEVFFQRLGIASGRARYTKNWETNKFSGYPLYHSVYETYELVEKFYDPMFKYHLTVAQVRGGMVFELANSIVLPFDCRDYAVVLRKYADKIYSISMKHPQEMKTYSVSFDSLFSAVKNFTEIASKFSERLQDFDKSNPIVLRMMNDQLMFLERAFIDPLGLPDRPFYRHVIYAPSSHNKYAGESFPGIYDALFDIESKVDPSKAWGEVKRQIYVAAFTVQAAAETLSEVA

For NCCOCCOCCOCCOCCOCCC(=O)N(CCCC[C@H](NC(=O)N[C@@H](CCC(=O)O)C(=O)O)C(=O)O)Cc1ccc(Br)cc1 [Compound A, (24S,28S)-19-(4-bromobenzyl)-24,28,30-tricarboxy-18,26-dioxo-3,6,9,12,15-pentaoxa-19,25,27-triazatriakontan-1-aminium 2,2,2-trifluoroacetate], the Ki [1] was 2030 pM.
Compound CC(C)[C@H](NC(=O)COCCOCCNC(=O)COCCOCCN)C(=O)N[C@@H](Cc1ccccc1)C[C@H](O)[C@H](Cc1ccccc1)NC(=O)OCc1cncs1 [compound C, (5S,6S,8S,11S)-5,8-dibenzyl-6-hydroxy-11-isopropyl-3,10,13,22-tetraoxo-1-(thiazol-5-yl)-2,15,18,24,27-pentaoxa-4,9,12,21-tetraazanonacosan-29-aminium 2,2,2-trifluoroacetate] has a Ki (HIV-1 protease; [2]) of 0.012 ± 0.001 nM and a Ki (HIV-1 protease; read-out: Ki towards HIV-1 protease) of 0.013 nM.
Work on CC(C)C[C@H](NC(=O)[C@H](C)NC(=O)C[C@H](O)[C@H](CC(C)C)NC(=O)[C@@H](NC(=O)[C@@H](NC(=O)COCCOCCNC(=O)COCCOCCN)C(C)C)C(C)C)[C@@H](O)CC(=O)O [compound D, (19S,22S,25S,26S,30S,33S)-33-((S)-2-carboxy-1-hydroxyethyl)-26-hydroxy-25-isobutyl-19,22-diisopropyl-30,35-dimethyl-8,17,20,23,28,31-hexaoxo-3,6,12,15-tetraoxa-9,18,21,24,29,32-hexaazahexatriacontan-1-aminium] (H-[AEEA][AEEA]VV[Sta]A[Sta]-OH) yielded a Ki (HIV-1 protease; [2]) of 590 nM.
With “poly(HPMA-co-Ma-β-Ala-ATTO488-co-Ma-β-Ala-NH-biotin) [Conjugate 2]” the “affinity isolation / binding of CA-IX from lysate of HT-29 cells” value (CA-IX) was “no binding of CA-IX” and the “inhibition of the activity of GCPII” value [1] was “did not inhibit the activity of GCPII”.
